According to paper PMC6597546, “Identification of a potent benzoxaborole drug candidate for treating cryptosporidiosis” (Nature Communications, 2019):
Values joined by “and” are separate entries in the source; they are usually repeats but may differ in a detail not shown here. Identical values can stand only once.

System: C. parvum (Bunch Grass Farms Iowa isolate)
Experiment: Neonatal calf model of cryptosporidiosis
Type: in vivo
Design: key to Oocyst Shedding, individual calves / Oocyst Shedding: C. parvum abundance per gram of fecal dry matter (qPCR); key to Fecal Consistency Score, individual calves / Fecal Consistency Score: score 1 = normal, 3 = severely abnormal
Conditions: for Fecal Consistency Score / Oocyst Shedding: 10 mg/kg every 12 h with delayed start
Experimental: All calf efficacy studies were performed as previously described. These studies were approved by the University of Vermont Institutional animal Care and Use Committee, and conducted in compliance with the USDA-APHIS “Blue Book”, available at www.aphis.usda.gov/animal-welfare. Holstein bull calves were acquired at birth from Green Mountain Dairy (Sheldon, VT), given synthetic colostrum with 200 g of IgG (Land O’Lakes, Ardent Hills, MO) and bovine coronavirus and Escherichia coli antibodies (First Defense Bolus, Immuncell Corporation, Portland, ME) within 2 h of birth, and transported to UVM. Calves were group-housed initially, and infected at 24–48 h of age during an interruption in bottle feeding by oral administration of ∼5 × 10^7 C. parvum Iowa isolate oocysts (Bunch Grass Farms, Deary, ID) suspended in 10 mL of water. They were then moved to individual raised pens, and observed twice daily at feeding times for clinical signs, which were quantified according to a previously described standardized scoring rubric. Data on fecal consistency, dehydration and overall health were collected, in each case with a score of 1 being normal and 3 being severely abnormal (scoring rubric in Supplementary Table 2). Clinical microbiologic studies for adventitious infectious agents including Salmonella culture, aerobic bacterial culture with E. coli genotyping, rotavirus, and coronavirus testing were performed on all calves at the onset of diarrhea by the Cornell Animal Health Diagnostic Center (Ithaca, NY). Animals with severe diarrhea or other symptoms were supported aggressively, including with administration of oral electrolytes, intravenous fluids and flunixin meglumine (Banamine, Merck) as needed. […] Daily fecal samples were obtained from collections bins located under each pen. Fecal samples used for parasite quantification were dried at 90 °C until stable in weight, and C. parvum abundance per gram of fecal dry matter was measured using qPCR and the primers Cp18s forward and Cp18s reverse.

CC1(C)OB(O)c2cc(NC(=O)c3ccc(-n4cccn4)cc3Cl)ccc21 [AN7973]
Fecal Consistency Score (Calf 1, Day 2): 1.67 | Oocyst Shedding (Calf 1, Day 2): 4028 | Fecal Consistency Score (Calf 1, Day 3): 2 | Oocyst Shedding (Calf 1, Day 3): 3180923 | Fecal Consistency Score (Calf 1, Day 4): 2.33 | Oocyst Shedding (Calf 1, Day 4): 4800342 | Fecal Consistency Score (Calf 1, Day 5): 1.5 | Oocyst Shedding (Calf 1, Day 5): 120115 | Fecal Consistency Score (Calf 1, Day 6): 1 | Oocyst Shedding (Calf 1, Day 6): 5946 | Fecal Consistency Score (Calf 1, Day 7): 1 | Oocyst Shedding (Calf 1, Day 7): 4811 | Fecal Consistency Score (Calf 1, Day 8): 1 | Oocyst Shedding (Calf 1, Day 8): 154 | Fecal Consistency Score (Calf 1, Day 9): 1 | Oocyst Shedding (Calf 1, Day 9): 1 | Fecal Consistency Score (Calf 1, Day 10): 1 | Oocyst Shedding (Calf 1, Day 10): 1 | Fecal Consistency Score (Calf 1, Day 11): 1 | Oocyst Shedding (Calf 1, Day 11): 164 | Fecal Consistency Score (Calf 1, Day 12): 1 | Oocyst Shedding (Calf 1, Day 12): 1032 | Fecal Consistency Score (Calf 1, Day 13): 1 | Oocyst Shedding (Calf 1, Day 13): 1 | Fecal Consistency Score (Calf 1, Day 14): 1 | Oocyst Shedding (Calf 1, Day 14): 1 | Fecal Consistency Score (Calf 2, Day 0): 1 | Oocyst Shedding (Calf 2, Day 0): 1 | Fecal Consistency Score (Calf 2, Day 1): 3 | Oocyst Shedding (Calf 2, Day 1): 15983 | Fecal Consistency Score (Calf 2, Day 2): 2 | Oocyst Shedding (Calf 2, Day 2): 572309 | Fecal Consistency Score (Calf 2, Day 3): 2.67 | Oocyst Shedding (Calf 2, Day 3): 9928800 | Fecal Consistency Score (Calf 2, Day 4): 3 | Oocyst Shedding (Calf 2, Day 4): 10753010 | Fecal Consistency Score (Calf 2, Day 5): 2.33 | Oocyst Shedding (Calf 2, Day 5): 89411 | Fecal Consistency Score (Calf 2, Day 6): 1 | Oocyst Shedding (Calf 2, Day 6): 36783 | Fecal Consistency Score (Calf 2, Day 7): 1 | Oocyst Shedding (Calf 2, Day 7): 6676 | Fecal Consistency Score (Calf 2, Day 8): 1 | Oocyst Shedding (Calf 2, Day 8): 2648 | Fecal Consistency Score (Calf 2, Day 9): 1 | Oocyst Shedding (Calf 2, Day 9): 2147 | Fecal Consistency Score (Calf 2, Day 10): 1 | Oocyst Shedding (Calf 2, Day 10): 401 | Fecal Consistency Score (Calf 2, Day 11): 1 | Oocyst Shedding (Calf 2, Day 11): 10 | Fecal Consistency Score (Calf 2, Day 12): 1 | Oocyst Shedding (Calf 2, Day 12): 1 | Fecal Consistency Score (Calf 2, Day 13): 1 | Oocyst Shedding (Calf 2, Day 13): 1 | Fecal Consistency Score (Calf 2, Day 14): 1 | Oocyst Shedding (Calf 2, Day 14): 1 | Fecal Consistency Score (Calf 3, Day 0): 1 | Oocyst Shedding (Calf 3, Day 0): 1 | Fecal Consistency Score (Calf 3, Day 1): 3 | Oocyst Shedding (Calf 3, Day 1): 4675 | Fecal Consistency Score (Calf 3, Day 2): 2.33 | Oocyst Shedding (Calf 3, Day 2): 376713 | Fecal Consistency Score (Calf 3, Day 3): 2.5 | Oocyst Shedding (Calf 3, Day 3): 3074178 | Fecal Consistency Score (Calf 3, Day 4): 3 | Oocyst Shedding (Calf 3, Day 4): 1097033 | Fecal Consistency Score (Calf 3, Day 5): 2.33 | Oocyst Shedding (Calf 3, Day 5): 172967 | Fecal Consistency Score (Calf 3, Day 6): 1.5 | Oocyst Shedding (Calf 3, Day 6): 10727 | Fecal Consistency Score (Calf 3, Day 7): 1 | Oocyst Shedding (Calf 3, Day 7): 1 | Fecal Consistency Score (Calf 3, Day 8): 1 | Oocyst Shedding (Calf 3, Day 8): 363 | Fecal Consistency Score (Calf 3, Day 9): 1 | Oocyst Shedding (Calf 3, Day 9): 1134 | Fecal Consistency Score (Calf 3, Day 10): 1 | Oocyst Shedding (Calf 3, Day 10): 624 | Fecal Consistency Score (Calf 3, Day 11): 1 | Oocyst Shedding (Calf 3, Day 11): 1 | Fecal Consistency Score (Calf 3, Day 12): 1 | Oocyst Shedding (Calf 3, Day 12): 1 | Fecal Consistency Score (Calf 3, Day 13): 1 | Oocyst Shedding (Calf 3, Day 13): 28 | Fecal Consistency Score (Calf 3, Day 14): 1 | Oocyst Shedding (Calf 3, Day 14): 1 | Oocyst Shedding, individual calves (10 mg/kg every 24 h on days 2–8, Day 0): 100 and 331 and 774 | Oocyst Shedding, individual calves (10 mg/kg every 24 h on days 2–8, Day 1): 6698 and 100 (2×) | Oocyst Shedding, individual calves (10 mg/kg every 24 h on days 2–8, Day 3): 644594 and 196913 and 724661 | Oocyst Shedding, individual calves (10 mg/kg every 24 h on days 2–8, Day 4): 119580 and 31776 and 1355 | Oocyst Shedding, individual calves (10 mg/kg every 24 h on days 2–8, Day 5): 573 and 17468 and 8981 | Oocyst Shedding, individual calves (10 mg/kg every 24 h on days 2–8, Day 7): 67293 and 6611 and 7598 | Oocyst Shedding, individual calves (10 mg/kg every 24 h on days 2–8, Day 9): 54864 and 100 and 1163 | Oocyst Shedding, individual calves (10 mg/kg every 24 h on days 2–8, Day 10): 139951 and 100 and 1010 | reduction of total burden of fecal C. parvum shedding (AUC) (bovine, in vivo): over 90% | reduction of fecal C. parvum shedding rate (first three days of treatment): nearly five logs | Fecal Consistency Score, individual calves (scale 1 normal to 3 severely abnormal, 5 mg/kg every 12 h on days 2–8, Day 0): 1 | Fecal Consistency Score, individual calves (scale 1–3, 5 mg/kg every 12 h on days 2–8, Day 1): 1 | Fecal Consistency Score, individual calves (scale 1–3, 5 mg/kg every 12 h on days 2–8, Day 2): 1 | Fecal Consistency Score, individual calves (scale 1–3, 5 mg/kg every 12 h on days 2–8, Day 3): 1 | Fecal Consistency Score, individual calves (scale 1–3, 5 mg/kg every 12 h on days 2–8, Day 4): 1 | Fecal Consistency Score, individual calves (scale 1–3, 5 mg/kg every 12 h on days 2–8, Day 5): 1 | Fecal Consistency Score, individual calves (scale 1–3, 5 mg/kg every 12 h on days 2–8, Day 6): 1 | Fecal Consistency Score, individual calves (scale 1–3, 5 mg/kg every 12 h on days 2–8, Day 7): 1 | Fecal Consistency Score, individual calves (scale 1–3, 5 mg/kg every 12 h on days 2–8, Day 8): 1 | Fecal Consistency Score, individual calves (scale 1–3, 5 mg/kg every 12 h on days 2–8, Day 9): 1 | Fecal Consistency Score, individual calves (scale 1–3, 5 mg/kg every 12 h on days 2–8, Day 10): 1 | Fecal Consistency Score, individual calves (scale 1–3, 10 mg/kg every 24 h on days 2–8, Day 0): 1 | Fecal Consistency Score, individual calves (scale 1–3, 10 mg/kg every 24 h on days 2–8, Day 1): 1 | Fecal Consistency Score, individual calves (scale 1–3, 10 mg/kg every 24 h on days 2–8, Day 2, 10 mg/kg): 1.33 (2×) and 2.67 | Fecal Consistency Score, individual calves (scale 1–3, 10 mg/kg every 24 h on days 2–8, Day 3, 10 mg/kg): 2 (2×) and 2.33 | Fecal Consistency Score, individual calves (scale 1–3, 10 mg/kg every 24 h on days 2–8, Day 4, 10 mg/kg): 2.33 and 1.33 (2×) | Fecal Consistency Score, individual calves (scale 1–3, 10 mg/kg every 24 h on days 2–8, Day 5): 1 | Fecal Consistency Score, individual calves (scale 1–3, 10 mg/kg every 24 h on days 2–8, Day 6): 1 | Fecal Consistency Score, individual calves (scale 1–3, 10 mg/kg every 24 h on days 2–8, Day 7): 1 | Fecal Consistency Score, individual calves (scale 1–3, 10 mg/kg every 24 h on days 2–8, Day 8): 1 | Fecal Consistency Score, individual calves (scale 1–3, 10 mg/kg every 24 h on days 2–8, Day 9): 1 | Fecal Consistency Score, individual calves (scale 1–3, 10 mg/kg every 24 h on days 2–8, Day 10): 1 | effect on dehydration (several of the treatment regimens): significantly reduced the overall severity of dehydration | tolerability in calves (twice daily assessment of alertness, interaction, appetite): tolerated AN7973 well
